Experiments:
Format in all cases: in vivo
Conditions in all cases: evaluated after 13 days
[1] = tested on: Setaria faberi (SETFA); experiment: Pre-emergence Test, Setaria faberi (SETFA)
[2] = tested on: Echinochloa crus-galli (ECHCG); experiment: Pre-emergence Test, Echinochloa crus-galli (ECHCG)
[3] = tested on: Zea mays (ZEAMX); experiment: Pre-emergence Test, Zea mays (ZEAMX)
[4] = tested on: Ipomoea hederacea (IPOHE); experiment: Pre-emergence Test, Ipomoea hederacea (IPOHE)
[5] = tested on: Amaranthus palmeri (AMAPA); experiment: Pre-emergence Test, Amaranthus palmeri (AMAPA)
[6] = tested on: Amaranthus retoflexus (AMARE); experiment: Pre-emergence Test, Amaranthus retoflexus (AMARE)
[7] = tested on: Setaria faberi (SETFA); experiment: Post-emergence Test, Setaria faberi (SETFA); set-up: key to percentage damage caused to the plant, SETFA (five-point scale): 5=81-100%, 4=61-80%, 3=41-60%, 2=21-40%, 1=0-20% damage
Method in brief: (§1)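 Application was a spray of acetone/water (50:50) with 0.5% Tween 20 onto pots of test species sown in standard soil. Unless otherwise stated, the rate was 1000 g/ha. After 13 days under glasshouse conditions (24/16 °C, 65% humidity), injury was scored from 1 (0-20%) to 5 (81-100%).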

[8] = tested on: Echinochloa crus-galli (ECHCG); experiment: Post-emergence Test, Echinochloa crus-galli (ECHCG); set-up: key to percentage damage caused to the plant, ECHCG (five-point scale): 5=81-100%, 4=61-80%, 3=41-60%, 2=21-40%, 1=0-20% damage
Method in brief: as §1

[9] = tested on: Zea mays (ZEAMX); experiment: Post-emergence Test, Zea mays (ZEAMX); set-up: key to percentage damage caused to the plant, ZEAMX (five-point scale): 5=81-100%, 4=61-80%, 3=41-60%, 2=21-40%, 1=0-20% damage
Method in brief: as §1

[10] = tested on: Ipomoea hederacea (IPOHE); experiment: Post-emergence Test, Ipomoea hederacea (IPOHE); set-up: key to percentage damage caused to the plant, IPOHE (five-point scale): 5=81-100%, 4=61-80%, 3=41-60%, 2=21-40%, 1=0-20% damage
Method in brief: as §1

[11] = tested on: Amaranthus palmeri (AMAPA); experiment: Post-emergence Test, Amaranthus palmeri (AMAPA); set-up: key: 5=81-100%, 4=61-80%, 3=41-60%, 2=21-40%, 1=0-20% damage
Method in brief: as §1

[12] = tested on: Amaranthus retoflexus (AMARE); experiment: Post-emergence Test, Amaranthus retoflexus (AMARE); set-up: key to percentage damage caused to the plant, AMARE (five-point scale): 5=81-100%, 4=61-80%, 3=41-60%, 2=21-40%, 1=0-20% damage
Method in brief: as §1

SMILES | Pre-emergence Test SETFA, percentage damage caused to the plant (five-point scale) ([1]; 1000 g/ha) | Pre-emergence Test ECHCG, percentage damage caused to the plant (five-point scale) ([2]; 1000 g/ha) | Pre-emergence Test ZEAMX, percentage damage caused to the plant (five-point scale) ([3]; 1000 g/ha) | Pre-emergence Test IPOHE, percentage damage caused to the plant (five-point scale) ([4]; 1000 g/ha) | Pre-emergence Test AMAPA, percentage damage caused to the plant (five-point scale) ([5]; 1000 g/ha) | Pre-emergence Test AMARE, percentage damage caused to the plant (five-point scale) ([6]; 1000 g/ha) | percentage damage caused to the plant, SETFA (five-point scale) ([7]; 250 g/Ha) | percentage damage caused to the plant, SETFA (five-point scale) ([7]; 1000 g/ha) | percentage damage caused to the plant, ECHCG (five-point scale) ([8]; 250 g/Ha) | percentage damage caused to the plant, ECHCG (five-point scale) ([8]; 1000 g/ha) | percentage damage caused to the plant, ZEAMX (five-point scale) ([9]; 250 g/Ha) | percentage damage caused to the plant, ZEAMX (five-point scale) ([9]; 1000 g/ha) | percentage damage caused to the plant, IPOHE (five-point scale) ([10]; 250 g/Ha) | percentage damage caused to the plant, IPOHE (five-point scale) ([10]; 1000 g/ha) | percentage damage caused to the plant, AMAPA (five-point scale) ([11]; 250 g/Ha) | percentage damage caused to the plant, AMAPA (five-point scale) ([11]; 1000 g/ha) | percentage damage caused to the plant, AMARE (five-point scale) ([12]; 250 g/Ha) | percentage damage caused to the plant, AMARE (five-point scale) ([12]; 1000 g/ha) | other results
CCn1c(Cn2ccc(C(F)(F)F)n2)cc(=O)c(C(=O)O)c1-c1cccc(Cl)c1 [Compound 25, 2-(3-chlorophenyl)-1-ethyl-4-oxo-6-[[3-(trifluoromethyl)pyrazol-1-yl]methyl]pyridine-3-carboxylic acid] | 5 (5=81-100%) | 5 (5=81-100%) | 1 (1=0-20%) | 1 (1=0-20%) | 2 (2=21-40%) | 2 (2=21-40%) | 4 (4=61-80%) | 4 (4=61-80%) | 3 (3=41-60%) | 4 (4=61-80%) | 0 | 3 (3=41-60%) | 4 (4=61-80%) | 4 (4=61-80%) | 2 (2=21-40%) | 2 (2=21-40%) | 2 (2=21-40%) | 2 (2=21-40%) | 
CCn1c(Cn2cc(Cl)c(C3CC3)n2)cc(=O)c(C(=O)O)c1-c1ccc(Cl)c(Cl)c1 [Compound 94, 6-[(4-chloro-3-cyclopropyl-pyrazol-1-yl)methyl]-2-(3,4-dichlorophenyl)-1-ethyl-4-oxo-pyridine-3-carboxylic acid] | 1 (1=0-20%) | 2 (2=21-40%) | 0 | 1 (1=0-20%) | 2 (2=21-40%) | 1 (1=0-20%) | 0 | 4 (4=61-80%) | 4 (4=61-80%) | 1 (1=0-20%) | 0 | 0 | 0 | 3 (3=41-60%) | 2 (2=21-40%) | 3 (3=41-60%) | 3 (3=41-60%) | 3 (3=41-60%) | Pre-emergence Test SETFA, percentage damage caused to the plant (five-point scale) ([1]; 250 g/Ha (*)): 1 (1=0-20%); Pre-emergence Test ECHCG, percentage damage caused to the plant (five-point scale) ([2]; 250 g/Ha (*)): 2 (2=21-40%); Pre-emergence Test ZEAMX, percentage damage caused to the plant (five-point scale) ([3]; 250 g/Ha (*)): 0; Pre-emergence Test IPOHE, percentage damage caused to the plant (five-point scale) ([4]; 250 g/Ha (*)): 0; Pre-emergence Test AMAPA, percentage damage caused to the plant (five-point scale) ([5]; 250 g/Ha (*)): 1 (1=0-20%); Pre-emergence Test AMARE, percentage damage caused to the plant (five-point scale) ([6]; 250 g/Ha (*)): 0
CCn1c(Cn2ncc3cc(F)ccc32)cc(=O)c(C(=O)O)c1-c1ccc(Cl)c(Cl)c1 [Compound 102, 2-(3,4-dichlorophenyl)-1-ethyl-6-[(5-fluoroindazol-1-yl)methyl]-4-oxo-pyridine-3-carboxylic acid] | 1 (1=0-20%) | 1 (1=0-20%) | 0 | 3 (3=41-60%) | 1 (1=0-20%) | 1 (1=0-20%) | 1 (1=0-20%) | 2 (2=21-40%) | 3 (3=41-60%) | 3 (3=41-60%) | 1 (1=0-20%) | 0 | 1 (1=0-20%) | 3 (3=41-60%) | 2 (2=21-40%) | 4 (4=61-80%) | 1 (1=0-20%) | 4 (4=61-80%) | 
